Reference: patent publication US11478451B1, “Macrocyclic chlorine substituted indole derivatives” (Bayer Aktiengesellschaft, priority 2017, dated 2022)
Counter-ions that a name gives are not always drawn. Like-named read-outs stand apart in the source and are kept apart here.

Legend:
MCL1 protein = MCL1 protein (Homo sapiens (Human), UniProt Q07820); assay: PIxEL: protein-protein interaction in permeabilized cells by ELISA (MCL1/biotin-BIM BH3 peptide, RKO cells); assay type: cell-based; settings: IC50, median, serum free
Sequence of MCL1 protein (Q07820 whole entry): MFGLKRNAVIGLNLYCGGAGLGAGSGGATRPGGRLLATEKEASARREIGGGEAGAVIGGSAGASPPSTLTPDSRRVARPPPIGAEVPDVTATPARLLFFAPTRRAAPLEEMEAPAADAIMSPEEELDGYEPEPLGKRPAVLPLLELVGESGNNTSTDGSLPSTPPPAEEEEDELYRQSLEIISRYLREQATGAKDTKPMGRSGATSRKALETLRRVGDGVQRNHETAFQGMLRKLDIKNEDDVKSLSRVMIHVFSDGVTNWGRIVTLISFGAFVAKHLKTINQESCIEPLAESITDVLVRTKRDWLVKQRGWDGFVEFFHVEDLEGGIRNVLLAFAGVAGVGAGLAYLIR
Experimental: PIxEL: Protein-Protein Interaction in Permeabilized Cells by ELISA
Most MCL1 protein molecules are localized at the mitochondria outer membrane and sequester pro-apoptotic proteins through binding of their BCL2 homology domain 3 (BH3 domain). MEB buffer (150 mM mannitol, 10 mM HEPES pH 7.5, 50 mM KCl, 20 μM EDTA, 20 μM EGTA, 5 mM potassium succinate, 0.1% protease-free BSA (SIGMA) with low dose digitonin (0.002%) permeabilizes plasma membrane while leaves live mitochondria, where MCL1 maintains its native localization and conformation. Unlike biophysical assays (e.g. TR-FRET) that use truncated recombinant MCL1 protein, this assay uses full length endogenous MCL1 protein at mitochondria outer membrane. It measures the interaction between MCL1 protein and biotinylated BIM BH3 peptide. Compounds can compete with BIM BH3 peptide to bind to MCL1 protein.
On day 1, RKO colon cancer cell line cells were plated at 0.8 million cells/ml, 100 μl/well in 96-well flat bottom TC plates (Corning). MCL1 antibody (Santa Cruz sc-12756) were diluted at 200 fold (final concentration 1 μg/ml) in carbonate buffer (Thermo Fisher Scientific, pH 9.6), and 50 μl of diluted antibody was added to each well of high bind ELISA plates ([…]). Each plate was tapped to make sure liquid covering entire bottom of wells and incubate at 37° C. overnight.
On the second day, MCL1 antibody was washed from ELISA plate. 250 μl Odyssey® Blocking Buffer (PBS) (Li-Cor) was added to each well, incubated at room temperature for at least 1 hour, then washed once with 250 μl 1×PBST. Plates with RKO cells were gently washed once with 100 μl/well PBS, once with 100 μl/well MEB buffer without digitonin, then 100 μl of MEB buffer with 0.002% digitonin was gently added to each well. Compounds were added with HP Tecan compound dispenser in 3-fold dilution series, highest dose 30 μM, 10-dose per compound in quadruplicates. Biotin-BIM peptide (synthesized by 21st Century) was added with HP Tecan compound dispenser at 0.2 μM immediately after the addition of compounds. Plates were rocked for 1 hour at room temperature. Then MEB buffer was aspirated and 50 μl of CHAPS buffer (50 mM Tris-Cl, pH 7.4, 150 mM NaCl, 1% CHAPS, 1 mM EDTA, 1 mM EGTA, cOmplete protease inhibitors (Roche), PhosSTOP (Roche)) was added to each well. Plates were rocked for 1 hour at 4° C., then 45 μl cell lysate from each well were transferred to ELISA plates coated with MCL1 antibody. Plates were incubated overnight in the cold room with rocking.
On the third day, ELISA plates were washed once with 250 μl 1×PBST. Streptavidin-poly-HRP (Thermo Fisher Scientific) was diluted to 20 ng/ml in Odyssey blocking buffer plus 0.05% Triton-100, and 100 μl was added to each well of the ELISA plate. Plates were incubated at RT from 1 hour with rocking, then washed with 100 μL 1×PBST for 3 times. Each SuperSignal ELISA Femto Maximum Sensitivity substrate was added to a 50-ml tube and mixed, then 100 μl of mixed substrate was added to each well. Plates were shaken for 1 minute then luminescence was measured by Envision plate reader […]. Signal of each well were normalized by no-compound control and no-cell control. IC50 was calculated using Graphic Pad PRISM software.

HMC-1-8 cells = assay: Antiproliferation assay (CellTiter-Glo, 72 h), HMC-1-8; assay type: cell-based; settings: IC50, median, HMC-1-8, 72 h, read-out: Antiproli HMC-1-8 [M] median
Procedure, shortened: (§1)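 Cells were incubated with compounds for 72 h at 37°C. Viability was then read by CellTiter-Glo luminescence, and a parallel day 0 plate read the same way gave the time-zero signal.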

AMO-1 cells = assay: Antiproliferation assay (CellTiter-Glo, 72 h), AMO-1; assay type: cell-based; settings: Homo sapiens, AMO1, 72 h, IC50, median; AMO-1, 72 h; read-out: Antiproli AMO-1 [M] median
Procedure, shortened: as §1

MCL-1 = MCL-1 (Homo sapiens (Human), UniProt Q07820, K194A/K197A/R201A); assay: Protein-protein interaction assay MCL-1/Noxa BH3 peptide (MCL-1 assay), TR-FRET; assay type: binding; settings: IC50, median; MCL-1/Noxa BH3 TR-FRET
Sequence of MCL-1 (Q07820 whole entry K194A/K197A/R201A, looked up, the tested form may be a part): as the sequence (Q07820 whole entry) above, with K194A, K197A, R201A counted along it
Experimental: The dose-dependent inhibition by the compounds described in this invention of the interaction between MCL-1 and the BH3 domain of Noxa (both human) was determined using a steady state binding competition assay with time-resolved fluorescence energy transfer (TR-FRET) readout. […] The MBP-MCL-1 was purchased from Beryllium (Bedford, Mass., USA). The expression and purification of this protein construct has been described elsewhere (DOI:10.1371/journal.pone.0125010). The Noxa BH3-derived peptide can be obtained from e.g. Biosyntan (Berlin, Germany), 50812.1.
For that, 100-fold concentrated DMSO solutions were prepared by serial dilutions (1:3.4) of a 2 mM stock solution in a clear, 384-well microtiter plate (Greiner Bio-One, Frickenhausen, Germany). From there, 50 nl were transferred in a dark test plate (Greiner Bio-One, Frickenhausen, Germany). […] This was followed by a 10-minute incubation step at 22° C. for pre-equilibration of the putative complex between MBP-MCL-1 and the compounds.
The mixture was incubated in the dark for one hour at 22° C. and then overnight at 4° C.
The resulting data (ratio) were normalized, taking 0% inhibition as the mean value of control measurements (usually 32 data points) where all reagents were included. In this case 50 nl DMSO were used instead of compounds. […] IC50 values were determined by regression analysis based on a 4 parameter equation (minimum, maximum, IC50, Hill; Y=Max+(Min−Max)/(1+(X/IC50)^Hill) using the Screener Software (Genedata).

SUDHL10 cells [1] = assay: Induction of cytotoxicity (CellTiter-Glo, 5 h), SUDHL10; settings: SUDHL10, 5 h
MV-4-11 cells = assay: Antiproliferation assay (CellTiter-Glo, 72 h), MV-4-11; assay type: cell-based; settings: IC50, median; MV-4-11, 72 h; read-out: Antiproli MV-4-11 [M] median
Experimental: (§2) Assessment of the Anti-Proliferative Effect of Compounds in Different Cell Lines
(§3) The impact of compounds on the proliferation of different cell lines was assessed using the CellTiter-Glo® Luminescent Cell Viability reagent from Promega (G7573).
(§4) In parallel, cells were plated in a reference (day 0) plate for time zero determination.
(§5) Rim wells were excluded. The cells were incubated for 72 h hours in a humidified incubator at 37° C. The day 0 plate was measured by adding 30 μL/well of CTG solution (CellTiter-Glo® Luminescent Cell Viability reagent, Promega G7573) to time zero wells in the reference plate followed by a 10 minutes incubation and luminescence reading at 0.1 ms. using the PHERAstar FS microplate reader (BMG Labtech).
(§6) After 72 h incubation, the treated plates were measured in the same way as the day 0 plate mentioned above.

SUDHL5 cells [2] = assay: Induction of cytotoxicity (CellTiter-Glo, 5 h), SUDHL5; settings: read-out: Cytotox SUDHL5 [M] (median); IC50, median; SUDHL5, 5 h
SUDHL5 cells [3] = assay: Antiproliferation assay (CellTiter-Glo, 72 h), SUDHL5; assay type: cell-based; settings: IC50, median; SUDHL5, 72 h; read-out: Antiproli SUDHL5 [M] (median)
Procedure, shortened: as §1

SUDHL5 cells [4] = assay: Induction of caspase-3/7 activity (Caspase-Glo 3/7), SUDHL5; assay type: cell-based; settings: EC50, median; SUDHL5, 3 h treatment
Procedure, shortened: (§7)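 DLBCL lines treated with compounds for 3 h at 37 °C in a humidified incubator; caspase-3/7 activity read with Caspase-Glo 3/7 luminescent reagent. Medium-only background subtracted from all values.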

SNU-389 cells = assay: Antiproliferation assay (CellTiter-Glo, 72 h), SNU-389; assay type: cell-based; settings: read-out: Antiproli SNU-389 [M] median
Experimental: as §2, §3, §4, §5, §6

SUDHL10 cells [5] = assay: Induction of caspase-3/7 activity (Caspase-Glo 3/7), SUDHL10; assay type: cell-based; settings: EC50, median; SUDHL10, 3 h treatment
Procedure, shortened: as §7

DMS-114 cells = assay: Antiproliferation assay (CellTiter-Glo, 72 h), DMS-114; assay type: cell-based; settings: Homo sapiens, DMS-114, 72 h; read-out: Antiproli DMS-114 [M] median
Experimental: as §2, §3, §4, §5, §6

[6] = Homo sapiens, SU-DHL10, 5 h, read-out: Cytotox SUDHL10 [M] (median), IC50, median

Row | IC50 (MCL1 protein) | IC50 (MCL-1) | SMILES | IC50 (AMO-1 cells) | IC50 (SUDHL10 cells [1]; [6]) | IC50 (MV-4-11 cells) | IC50 (SUDHL5 cells [2]) | IC50 (SUDHL5 cells [3]) | IC50 (HMC-1-8 cells) | further results
1 | 436 nM | 1.7 nM | Cc1c2c(nn1CCCN1CCN(C)CC1)COCCCCn1c(C(=O)O)c(CCCOc3cccc4ccccc34)c3ccc(Cl)c-2c31 (single isomer, unassigned; enantiomer 1) [Example 49, (+)-4-chloro-3-methyl-2-[3-(4-methylpiperazin-1-yl)propyl]-7-{3-[(naphthalen-1-yl)oxy]propyl}-2,10,11,12,13,15-hexahydropyrazolo[4′,3′:9,10][1,6]oxazacycloundecino[8,7,6-hi]indole-8-carboxylic acid (Enantiomer 1)] | 1.5e-06 M | 1e-06 M | – | – | – | – | –
2 | – | 62 nM | CCc1c2c(nn1C)CN(CCN1CCOCC1)CCCCn1c(C(=O)O)c(CCCOc3cccc4cc(F)ccc34)c3ccc(Cl)c-2c31 (single isomer, unassigned; enantiomer 2) [Example 143, 4-chloro-3-ethyl-7-{3-[(6-fluoronaphthalen-1-yl)oxy]propyl}-2-methyl-14-[2-(morpholin-4-yl)ethyl]-10,11,12,13,14,15-hexahydro-2H-pyrazolo[3′,4′:8,9][1,6]diazacycloundecino[10,11,1-hi]indole-8-carboxylic acid (Enantiomer 2)] | – | – | – | – | 9.4e-06 M | – | –
3 | 1740 nM | – | Cc1c2c(nn1C)COCC1CC1Cn1c(C(=O)O)c(CCCOc3cccc4ccccc34)c3ccc(Cl)c-2c31 (single isomer, unassigned; stereoisomer 2) [Example 66, (9aR,10aS or 9aS,10aR)-3-chloro-4,5-dimethyl-14-{3-[(naphthalen-1-yl)oxy]propyl}-5,7,9a,10,10a,11-hexahydro-9H-cyclopropa[3,4]pyrazolo[4′,3′:9,10][1,6]oxazacycloundecino-[8,7,6-hi]indole-13-carboxylic acid—Stereoisomer 2] | – | 1.4e-07 M | – | – | – | 1e-06 M | IC50 (DMS-114 cells): 3.15e-07 M; IC50 (SNU-389 cells; 72 h): 5.76e-07 M

The remaining lines, values behind:

Row | SMILES | IC50 (MCL1 protein) | IC50 (MCL-1) | IC50 (AMO-1 cells) | IC50 (SUDHL10 cells [1]; [6]) | IC50 (MV-4-11 cells) | IC50 (SUDHL5 cells [2]) | IC50 (SUDHL5 cells [3]) | IC50 (HMC-1-8 cells) | further results
4 | Cc1c2c(nn1C)CN(C)CCCCn1c(C(=O)O)c(CCCOc3cccc4cc(F)ccc34)c3ccc(Cl)c-2c31 (racemic) [Example 30, (rac)-4-chloro-7-{3-[(6-fluoronaphthalen-1-yl)oxy]propyl}-2,3,14-trimethyl-10,11,12,13,14,15-hexahydro-2H-pyrazolo[3′,4′:8,9][1,6]diazacycloundecino[10,11,1-hi]indole-8-carboxylic acid] | 227 nM | – | 4.2e-07 M | – | – | – | – | – | IC50 (HMC-1-8 cells; 72 h): 1.6e-06 M
5 | Cc1c2c(nn1C)CN(C)CCCCn1c(C(=O)O)c(CCCOc3cccc4ccccc34)c3ccc(Cl)c-2c31 (single isomer, unassigned; enantiomer 2) [Example 13, (−)-4-chloro-2,3,14-trimethyl-7-[3-(naphthalen-1-yloxy)propyl]-10,11,12,13,14,15-hexahydro-2H-pyrazolo[3′,4′:8,9][1,6]diazacycloundecino[10,11,1-hi]indole-8-carboxylic acid-N-ethylethanamine salt (Enantiomer 2)] | – | – | – | – | 1.22e-05 M | 6.9e-06 M | 6.4e-06 M | – | –
6 | Cc1c2c(nn1C)COCCCCn1c(C(=O)O)c(CCCOc3cccc4cc(F)ccc34)c3ccc(Cl)c-2c31 (single isomer, unassigned; enantiomer 2) [Example 17, (−)-4-chloro-7-{3-[(6-fluoronaphthalen-1-yl)oxy]propyl}-2,3-dimethyl-2,10,11,12,13,15-hexahydropyrazolo[4′,3′:9,10][1,6]oxazacycloundecino[8,7,6-hi]indole-8-carboxylic acid-N-ethylethanamine salt (Enantiomer 2)] | – | – | – | – | 6.7e-06 M | 2.2e-07 M | 2.1e-07 M | 1.2e-06 M | EC50 (SUDHL5 cells [4]): 290 nM; IC50 (SNU-389 cells; IC50, median, SNU-389, 72 h): 9.86e-07 M; IC50 (SUDHL10 cells [1]; read-out: Cytotox SUDHL10 [M] (median), IC50, median): 6.6e-07 M; EC50 (SUDHL10 cells [5]): 380 nM
